Activity calls are given as the source filed them. How the calls were made is not given here.
System: CCRIS mutagenicity, Ames/micronucleus/aberration tests
Assay: CCRIS mutagenicity studies
[1] = Test System: AMES SALMONELLA TYPHIMURIUM, Strain/Indicator: TA98, Metabolic Activation: HAMSTER, LIVER, S-9, AROCLOR 1254 (10%), Method: PREINCUBATION
[2] = Test System: AMES SALMONELLA TYPHIMURIUM, Strain/Indicator: TA98, Metabolic Activation: NONE, Method: PREINCUBATION
[3] = Test System: AMES SALMONELLA TYPHIMURIUM, Strain/Indicator: TA98, Metabolic Activation: RAT, LIVER, S-9, AROCLOR 1254 (10%), Method: PREINCUBATION
[4] = Test System: AMES SALMONELLA TYPHIMURIUM, Strain/Indicator: TA100, Metabolic Activation: HAMSTER, LIVER, S-9, AROCLOR 1254 (10%), Method: PREINCUBATION
[5] = Test System: AMES SALMONELLA TYPHIMURIUM, Strain/Indicator: TA100, Metabolic Activation: NONE, Method: PREINCUBATION
[6] = Test System: AMES SALMONELLA TYPHIMURIUM, Strain/Indicator: TA100, Metabolic Activation: NONE, Method: STANDARD PLATE
[7] = Test System: AMES SALMONELLA TYPHIMURIUM, Strain/Indicator: TA100, Metabolic Activation: RAT, LIVER, S-9, AROCLOR 1254 (10%), Method: PREINCUBATION
[8] = Test System: AMES SALMONELLA TYPHIMURIUM, Strain/Indicator: TA100, Metabolic Activation: RAT, LIVER, S-9, AROCLOR 1254, Method: STANDARD PLATE
[9] = Test System: AMES SALMONELLA TYPHIMURIUM, Strain/Indicator: TA1535, Metabolic Activation: HAMSTER, LIVER, S-9, AROCLOR 1254 (10%), Method: PREINCUBATION
[10] = Test System: AMES SALMONELLA TYPHIMURIUM, Strain/Indicator: TA1535, Metabolic Activation: NONE, Method: PREINCUBATION
[11] = Test System: AMES SALMONELLA TYPHIMURIUM, Strain/Indicator: TA1535, Metabolic Activation: NONE, Method: STANDARD PLATE
[12] = Test System: AMES SALMONELLA TYPHIMURIUM, Strain/Indicator: TA1535, Metabolic Activation: RAT, LIVER, S-9, AROCLOR 1254 (10%), Method: PREINCUBATION
[13] = Test System: AMES SALMONELLA TYPHIMURIUM, Strain/Indicator: TA1535, Metabolic Activation: RAT, LIVER, S-9, AROCLOR 1254, Method: STANDARD PLATE
[14] = Test System: AMES SALMONELLA TYPHIMURIUM, Strain/Indicator: TA1537, Metabolic Activation: HAMSTER, LIVER, S-9, AROCLOR 1254 (10%), Method: PREINCUBATION
[15] = Test System: AMES SALMONELLA TYPHIMURIUM, Strain/Indicator: TA1537, Metabolic Activation: NONE, Method: PREINCUBATION
[16] = Test System: AMES SALMONELLA TYPHIMURIUM, Strain/Indicator: TA1537, Metabolic Activation: NONE, Method: STANDARD PLATE
[17] = Test System: AMES SALMONELLA TYPHIMURIUM, Strain/Indicator: TA1537, Metabolic Activation: RAT, LIVER, S-9, AROCLOR 1254 (10%), Method: PREINCUBATION

SMILES	mutagenic call [1]	mutagenic call [2]	mutagenic call [3]	mutagenic call [4]	mutagenic call [5]	mutagenic call [6]	mutagenic call [7]	mutagenic call [8]	mutagenic call [9]	mutagenic call [10]	mutagenic call [11]	mutagenic call [12]	mutagenic call [13]	mutagenic call [14]	mutagenic call [15]	mutagenic call [16]	mutagenic call [17]	further results
CN(CCO)CCO	inactive; negative	inactive; negative	inactive; negative	inactive; negative	inactive; negative	inactive; negative	inactive; negative	inactive; negative	inactive; negative	inactive; negative	inactive; negative	inactive; negative	inactive; negative	inactive; negative	inactive; negative	inactive; negative	inactive; negative	mutagenic call (Test System: AMES SALMONELLA TYPHIMURIUM, Strain/Indicator: TA98, Metabolic Activation: NONE, Method: STANDARD PLATE): inactive; negative; mutagenic call (Test System: AMES SALMONELLA TYPHIMURIUM, Strain/Indicator: TA98, Metabolic Activation: RAT, LIVER, S-9, AROCLOR 1254, Method: STANDARD PLATE): inactive; negative; mutagenic call (Test System: AMES SALMONELLA TYPHIMURIUM, Strain/Indicator: TA1537, Metabolic Activation: RAT, LIVER, S-9, AROCLOR 1254, Method: STANDARD PLATE): inactive; negative; mutagenic call (Test System: AMES SALMONELLA TYPHIMURIUM, Strain/Indicator: TA1538, Metabolic Activation: NONE, Method: STANDARD PLATE): inactive; negative; mutagenic call (Test System: AMES SALMONELLA TYPHIMURIUM, Strain/Indicator: TA1538, Metabolic Activation: RAT, LIVER, S-9, AROCLOR 1254, Method: STANDARD PLATE): inactive; negative; mutagenic call (Test System: CHINESE HAMSTER OVARY, Strain/Indicator: CHO-K1-BH4, Metabolic Activation: NONE): inactive; negative; mutagenic call (Test System: CHINESE HAMSTER OVARY, Strain/Indicator: CHO-K1-BH4, Metabolic Activation: RAT, LIVER, S-9, AROCLOR 1254): inactive; negative
O=C(O)C1OC1C(=O)O (configuration not stated)	–	–	–	–	–	inactive; negative	–	inactive; negative	–	–	inactive; negative	–	inactive; negative	–	–	–	–	mutagenic call (Test System: UDS RAT HEPATOCYTES, Strain/Indicator: THY INCORP, Metabolic Activation: NONE): inactive; negative
Cc1cnc2cc(CO)c3c(nc(N)n3C)c2n1	–	–	–	–	–	–	–	–	–	–	–	–	–	–	–	–	–	mutagenic call (Test System: AMES SALMONELLA TYPHIMURIUM, Strain/Indicator: TA98, Metabolic Activation: S-9): active; positive; mutagenic call (Test System: AMES SALMONELLA TYPHIMURIUM, Strain/Indicator: TA98, Metabolic Activation: S-9, Method: PREINCUBATION): active; positive; mutagenic call (Test System: AMES SALMONELLA TYPHIMURIUM, Strain/Indicator: TA100, Metabolic Activation: S-9, Method: PREINCUBATION): active; positive; mutagenic call (Test System: AMES SALMONELLA TYPHIMURIUM, Strain/Indicator: YG1024, Metabolic Activation: S-9): active; positive; mutagenic call (Test System: AMES SALMONELLA TYPHIMURIUM, Strain/Indicator: YG1024, Metabolic Activation: S-9, Method: PREINCUBATION): active; positive
c1ccc2c(c1)-c1ccc3ccccc3c1C1OC21 (configuration not stated)	–	active; positive	–	–	active; positive	active; positive	–	inactive; negative	–	–	–	–	–	–	–	active; positive	–	mutagenic call (Test System: AMES SALMONELLA TYPHIMURIUM, Strain/Indicator: TA98, Metabolic Activation: NONE, Method: PREINCUBATION (KCL-CONTAINING MEDIUM)): active; positive; mutagenic call (Test System: AMES SALMONELLA TYPHIMURIUM, Strain/Indicator: TA98, Metabolic Activation: NONE, Method: PREINCUBATION (KCL-FREE MEDIUM)): active; positive; mutagenic call (Test System: AMES SALMONELLA TYPHIMURIUM, Strain/Indicator: TA100, Metabolic Activation: NONE, Method: PREINCUBATION (KCL-CONTAINING OR KCL-FREE MEDIA)): active; positive; mutagenic call (Test System: CHINESE HAMSTER V-79, Strain/Indicator: V-79/6-THIOGUANINE, Metabolic Activation: NONE, Method: STANDARD PLATE): active; positive
OC1C2(Cl)C3(Cl)C4(Cl)C(Cl)(Cl)C5(Cl)C3(Cl)C1(Cl)C5(Cl)C24Cl (configuration not stated)	inactive; negative	inactive; negative	inactive; negative	inactive; negative	inactive; negative	–	inactive; negative	–	inactive; negative	inactive; negative	–	inactive; negative	–	inactive; negative	inactive; negative	–	inactive; negative	mutagenic call (End Point: IN VITRO CHROMOSOMAL ABERRATIONS, Test System: CHINESE HAMSTER OVARY CELLS, Metabolic Activation: NONE): inactive; negative
CCOc1cccc(N)c1	–	inactive; negative	–	–	inactive; negative	–	–	–	–	–	–	–	–	–	–	–	–	mutagenic call (Test System: AMES SALMONELLA TYPHIMURIUM, Strain/Indicator: TA97, Metabolic Activation: HAMSTER, LIVER, S-9, AROCLOR 1254 (30%), Method: PREINCUBATION): inactive; negative; mutagenic call (Test System: AMES SALMONELLA TYPHIMURIUM, Strain/Indicator: TA98, Metabolic Activation: HAMSTER, LIVER, S-9, AROCLOR 1254 (5 OR 10%), Method: PREINCUBATION): inactive; negative; mutagenic call (Test System: AMES SALMONELLA TYPHIMURIUM, Strain/Indicator: TA98, Metabolic Activation: HAMSTER, LIVER, S-9, AROCLOR 1254 (30%), Method: PREINCUBATION): inactive; negative; mutagenic call (Test System: AMES SALMONELLA TYPHIMURIUM, Strain/Indicator: TA98, Metabolic Activation: RAT, LIVER, S-9, AROCLOR 1254 (5 OR 10%), Method: PREINCUBATION): inactive; negative; mutagenic call (Test System: AMES SALMONELLA TYPHIMURIUM, Strain/Indicator: TA98, Metabolic Activation: RAT, LIVER, S-9, AROCLOR 1254 (30%), Method: PREINCUBATION): inactive; negative; mutagenic call (Test System: AMES SALMONELLA TYPHIMURIUM, Strain/Indicator: TA100, Metabolic Activation: HAMSTER, LIVER, S-9, AROCLOR 1254 (5, 10 OR 30%), Method: PREINCUBATION): inactive; negative; mutagenic call (Test System: AMES SALMONELLA TYPHIMURIUM, Strain/Indicator: TA100, Metabolic Activation: RAT, LIVER, S-9, AROCLOR 1254 (5, 10 OR 30%), Method: PREINCUBATION): inactive; negative; mutagenic call (Test System: AMES SALMONELLA TYPHIMURIUM, Strain/Indicator: TA1535, Metabolic Activation: HAMSTER, LIVER, S-9, AROCLOR 1254 (5, 10 OR 30%), Method: PREINCUBATION): inactive; negative; mutagenic call (Test System: AMES SALMONELLA TYPHIMURIUM, Strain/Indicator: TA1535, Metabolic Activation: RAT, LIVER, S-9, AROCLOR 1254 (5, 10 OR 30%), Method: PREINCUBATION): inactive; negative
